Assay results: US6482799B1, “Self-preserving multipurpose ophthalmic solutions incorporating a polypeptide antimicrobial” (The Regents of the University of California, priority 1999, dated 2002)

Assays:
[1] = test system: Staphylococcus aureus 502A; experiment: Dose response of antimicrobial activity in 10 mM sodium phosphate buffer; assay type: cell-based; details: 10 μg/mL indolicidin, 2 hours, 10 mM sodium phosphate buffer pH 7.4, 37° C., 2×10^6 CFU
Method: The time course and dose-dependence of the antimicrobial activity of an antimicrobial peptide can be determined by incubating a microorganism with the antimicrobial peptide and determining the viability after various times of incubation or after treatment with various concentrations of the antimicrobial peptide.
Exemplary assays using indolicidin and indolicidin analogs were performed in 10 mM sodium phosphate buffer, pH 7.4, at 37° C., as described by Selsted et al. (1985) Infect. Immun. 45:150-154, which is incorporated herein by reference.
The dose response of a gram negative bacterial strain, Escherichia coli ML35, and a gram positive bacterial strain, Staphylococcus aureus 502A, to indolicidin was determined by incubating 2×10^6 colony forming units (CFU) of log phase bacteria with 0-25 μg/mL of indolicidin for two hours. Following incubation, the cultures were serially diluted and plated on nutrient agar. Viability of both gram negative and gram positive bacteria was reduced by at least four orders of magnitude in incubations containing 10 μg/mL of indolicidin. E. coli was more susceptible than S. aureus, as >95% of the input cells were killed after 2 hr incubation with 2.5 μg/mL indolicidin. The indolicidin diluent, 0.01% acetic acid, had no effect on either bacterial strain.

[2] = test system: Staphylococcus aureus (ATCC 6538); experiment: Short-term (14 day) stability in commercial plastic container (RENU) by S. aureus bioassay; assay type: cell-based; details: for stability of antimicrobial activity: room temperature, plastic container
Excerpt: The objective of this study was to determine if there is significant and rapid binding of L-IND to a typical plastic bottle such as the type to be used to store, ship and use the lens-care solution. The 2-week study reported here was a range-finding task to determine if there was substantial binding and incompatibility, and its results helped plan a more extensive stability study over a period of 8 months.
The two commercial containers were used that previously contained the commercial product RENU®, a multi-purpose solution for all soft contact lenses not requiring enzymatic cleaning, and manufactured by Bausch & Lomb. These containers hold a volume of 89 ml and came with a dispenser that precludes the removal of the cap, which aids in keeping the solution sterile. The lot number of the RENU® lens-care solutions used was GE7089, having an expiration date of May 1999.
The containers were prepared for the L-IND stability study by discarding the RENU® lens care solution, and by rinsing, 3 times with either sterile 10 mM sodium phosphate buffer (SP), pH 7.4 or 10 mM SP supplemented with 0.85 % (w/v) sodium chloride (SP+NaCl).
The test article, L-IND peptide solution, was prepared fresh from dry L-IND powder (Lot #036752). Two solutions were prepared for evaluation, to a final concentration of 50 μg/ml in 50 ml of 10 mM SP and 10 mM SP+NaCl. For this purpose a stock solution was prepared by weighing out 5 mg of L-IND and dissolving it in 10 ml of 0.01% acetic acid in a pyrogen free sterile Teflon container. A 10-fold dilution of this stock was then made by transferring 5 ml of the stock solution to each of the containers to which was then added 45 ml of either 10 mM SP or 10 mM SP+NaCl. After mixing by slowly shaking, the solutions were maintained at room temperature for the duration of the study.
It should be noted that the 5 ml of the L-IND stock solution was added to the empty containers. This was followed by addition of 45 ml of the respective buffer systems. The addition of peptide concentrate to the empty containers would enhance binding of the peptide to the plastic. Had excessive binding resulted, a less stringent procedure of adding the peptide concentrate to bottles prefilled with buffer would have been adopted in subsequent experiments.
The stability of L-IND in each container was determined at times 0 h, 24 h, 48 h, 72 h, 7 d, 10 d and 14 d. At each sampling point, the contents of each of the two containers was shaken gently 3 times in a back and forth rocking motion. Three aliquots of about 1.5 ml of the solutions containing L-IND were removed. One aliquot was used immediately for determining the stability of L-IND by exposure to Staphylococcus aureus (see below). The other aliquots were stored in the freezer (−20° C.). One of these aliquots was kept until the end of the monitoring period, which was 14 days. At that time all the frozen samples were thawed and tested for stability of L-IND by bioassay.
Staphylococcus aureus (ATCC 6538) obtained directly from the American Type Culture Collection was the test organism. The bacterium was grown overnight at 37° C. in 5 ml of Mueller-Hinton (MH) broth on a shaking platform (180 rpm). The overnight culture was washed 2 times in sterile saline by centrifugation at 7,000 RPM. One half of the cells were then resuspended in 2.5 ml of sterile 10 mM SP, while the other half was resuspended in 2.5 ml of 10 mM SP+NaCl. Each washed culture was then diluted to give an estimated 10^7 colony-forming-units (CFU) per […].
S. aureus was exposed at room temperature to each of the samples, removed at the different time points, for 0, 15 and 60 minutes, and for 4 hours. For this purpose 0.25 ml of each L-IND solution was dispensed into wells of a 96-well polypropylene titer plate. A volume of 20 μl of the 10× washed bacterial suspension was then added to each well. The estimated cell density thus obtained per well was about 10^6 CFU/ml. […]

`CC[C@H](C)[C@H](N)C(=O)N[C@@H](CC(C)C)C(=O)N1CCC[C@H]1C(=O)N[C@@H](Cc1c[nH]c2ccccc12)C(=O)N[C@@H](CCCCN)C(=O)N[C@@H](Cc1c[nH]c2ccccc12)C(=O)N1CCC[C@H]1C(=O)N[C@@H](Cc1c[nH]c2ccccc12)C(=O)N[C@@H](Cc1c[nH]c2ccccc12)C(=O)N1CCC[C@H]1C(=O)N[C@@H](Cc1c[nH]c2ccccc12)C(=O)N[C@@H](CCCNC(=N)N)C(=O)N[C@@H](CCCNC(=N)N)C(N)=O` [L-indolicidin, H2N-ILPWKWPWWPWRR-CONH2] was tested, and the Viability reduction [1] was “at least four”, the “stability of antimicrobial activity” value ([2]; 50 μg/ml in 10 mM SP+NaCl (0.85%), 14 days) was “stable” and the “stability of antimicrobial activity” value ([2]; 50 μg/ml in 10 mM SP, 14 days) was “stable”. The “adsorption to the plastic container” value ([2]; 50 μg/ml, 14 days) was “no obvious or dramatic adsorption”, the log kill ([2]; 50 μg/ml, frozen samples, 10 mM SP+NaCl, 4 hours exposure) was “about 1.5 log” and the log kill ([2]; 50 μg/ml, frozen, 10 mM SP, 60 minute exposure) was 6 log. For the same compound, the log kill ([2]; 50 μg/ml, unfrozen, 10 mM SP+NaCl (0.85%), 4 hours exposure) was ~1 log and the log kill ([2]; 50 μg/ml, unfrozen, 10 mM SP, 4 hours exposure) was 4 log.
